The test system of assay [1] is hypothermic effect caused by reserpine. Kind of assay: reserpine-antagonism, elimination of the hypothermic effect caused by reserpine. It is filed as in vivo. The following applies: Mus musculus, mice, oral, 17 hours after 2 mg/kg i.p. reserpine. As to the method: A further test for determining the anti-depressant activity is the reserpine-antagonism, the elimination of the hypothermic effect caused by reserpine. The test is carried out on mice, using 5 animals per dose. 17 Hours after i.p. administration of 2 mg/kg of reserpine, the body temperature is measured peripherally at a room temperature of 19° C. Afterwards, the test substance is administered orally, and the body temperature is measured after elapse of 1, 3, 5, and 7 hours. For each measurement a medium effective dose (ED50) is determined. This is the dose at which the body temperature of the animals treated with reserpine approaches the normal temperature of the untreated controls by 50%.

Assay [2] relates to uptake of noradrenaline in the neurons. As to the kind of experiment: inhibition of noradrenaline uptake, synaptosomes from homogenized isolated cerebrum of the rat. The format is biochemical. To be noted: ten minutes at 37° C., 50% uptake inhibition, read-out: Noradrenalin inhibition IC 50. On the procedure:
(§1) It is known that various forms of depressions cause in certain sections of the brain a deficiency of biogenetic amines, especially of noradrenaline and serotonine; the biogenetic amines may be multiplied by inhibiting the uptake in the neurons. […] The test is performed on the homogenized, isolated cerebrum of the rat. A suspension of synaptosomes thus obtained is incubated with […] noradrenaline or serotonine and various concentrations of a solution of the test substance in water for ten minutes at 37° C. After completion of the incubation, the medium is separated by filtering, and the radioactivity of the suspension of synaptosomes is measured. A control test without test substance is made simultaneously in order to determine the quantity of uptake of the radioactive amines. The quantity of the test substance in mols which suffices for inhibiting 50% of the uptake is designated as IC 50.

In assay [3] the test system is uptake of serotonine in the neurons. Kind of assay: inhibition of serotonine uptake, synaptosomes from homogenized isolated cerebrum of the rat. It is filed as biochemical. The following applies: ten minutes at 37° C., 50% uptake inhibition, read-out: Serotinine inhibition IC 50. On the procedure: as §1
The mark [4] stands for this setting: 1 hr., read-out: Reserpine antagonism ED50 after 1 hr.
Where [5] appears, read: 3 hrs., read-out: Reserpine antagonism ED50 after 3 hrs.
Setting [6] is: 5 hrs., read-out: Reserpine antagonism ED50 after 5 hrs.
Where [7] appears, read: 7 hrs., read-out: Reserpine antagonism ED50 after 7 hrs.

Structures are written as SMILES. Read-outs that look alike come from different tables or passages of the source.

The term ED50 denotes the midpoint of the dose-response relation. For the compound `Cc1cc2c(s1)CN(C)CC2c1ccc(Br)cc1.Cl` (stereo not drawn) [2,6-Dimethyl-4-(p-bromophenyl)-4,5,6,7-tetrahydro-thieno[2,3-c]pyridine hydrochloride], the ED50 in assay [1] (setting [4]) turned out to be 1.7 mg/kg; in assay [1] (setting [5]), 2.7 mg/kg; in assay [1] (setting [6]), 4.6 mg/kg; in assay [1] (setting [7]), 80 mg/kg. Besides, the IC50 worked out at 280 nM in assay [2] and 540 nM in assay [3].
In the case of `Cc1cc2c(s1)CN(C)CC2c1ccccc1.Cl` (stereo not drawn) [2,6-dimethyl-4-phenyl-4,5,6,7-tetrahydro-thieno[2,3-c]pyridine hydrochloride], the ED50 amounted to 19 mg/kg in assay [1] (setting [4]), 25 mg/kg in assay [1] (setting [5]), 80 mg/kg in assay [1] (setting [6]) and 80 mg/kg in assay [1] (setting [7]). For the same compound, the IC50 was determined as 560 nM in assay [2] and 80000 nM in assay [3].
In the case of `CN1Cc2sc(Cl)cc2C(c2ccc(Cl)cc2)C1.Cl` (stereo not drawn) [2-Chloro-4-(p-chloro-phenyl)-6-methyl-4,5,6,7-tetrahydro-thieno[2,3-c]pyridine hydrochloride], the ED50 amounted to 16 mg/kg in assay [1] (setting [4]), 8.5 mg/kg in assay [1] (setting [5]), 9.5 mg/kg in assay [1] (setting [6]) and 10 mg/kg in assay [1] (setting [7]). Moreover, the IC50 was 1600 nM in assay [2] and 5400 nM in assay [3].
For the compound `CN1Cc2sc(Cl)cc2C(c2ccccc2)C1.Cl` (stereo not drawn) [2-Chloro-4-phenyl-6-methyl-4,5,6,7-tetrahydro-thieno[2,3-c]pyridine hydrochloride], the ED50 turned out to be 13 mg/kg in assay [1] (setting [4]), 30 mg/kg in assay [1] (setting [5]), 90 mg/kg in assay [1] (setting [6]) and 90 mg/kg in assay [1] (setting [7]). The values for the IC50 in assay [2] and in assay [3] were 1400 nM and more than 10000 nM, respectively.
`CN1Cc2sc(Br)cc2C(c2ccc(Br)cc2)C1` (stereo not drawn) [2-bromo-4-(p-bromophenyl)-6-methyl-4,5,6,7-tetrahydro-thieno[2,3-c]pyridine]: the ED50 worked out at 55 mg/kg in assay [1] (setting [4]), 7.5 mg/kg in assay [1] (setting [5]), 32 mg/kg in assay [1] (setting [6]) and 100 mg/kg in assay [1] (setting [7]). Moreover, the IC50 in assay [2] was found to be 1600 nM; in assay [3] it was 4100 nM.
With `Cc1ccc(C2CN(C)Cc3sc(Br)cc32)cc1.Cl` (stereo not drawn) [2-bromo-4-(p-tolyl)-6-methyl-4,5,6,7-tetrahydro thieno[2,3-c] pyridine hydrochloride], the ED50 in assay [1] (setting [4]) is 48 mg/kg; in assay [1] (setting [5]), 80 mg/kg; in assay [1] (setting [6]), 80 mg/kg; in assay [1] (setting [7]) it was 80 mg/kg. In addition, the figures for the IC50 in assay [2] and in assay [3] were 640 nM and 9000 nM, respectively.
As to `CN1Cc2sc(Cl)cc2C(c2ccc(Br)cc2)C1.Cl` (stereo not drawn) [2-chloro-4-(4-bromophenyl)-6-methyl-4,5,6,7-tetrahydro-thieno[2,3-c] pyridine hydrochloride], the median effective dose (ED50) in assay [1] (setting [4]) is 50 mg/kg; in assay [1] (setting [5]), 3 mg/kg; in assay [1] (setting [6]) it was 4.2 mg/kg; in assay [1] (setting [7]), 38 mg/kg. The IC50 in assay [2] came to 1000 nM; in assay [3] it was 3500 nM.
Regarding `Cc1ccc(C2CN(C)Cc3sc(Cl)cc32)cc1.Cl` (stereo not drawn) [2-chloro-4-(p-tolyl)-6-methyl-4,5,6,7-tetrahydro-thieno[2,3-c] pyridine hydrochloride], the ED50 in assay [1] (setting [4]) was 44 mg/kg; in assay [1] (setting [5]), 12.5 mg/kg; in assay [1] (setting [6]), 18 mg/kg; in assay [1] (setting [7]) it was 20 mg/kg. Further, the figures for the IC50 in assay [2] and in assay [3] were 900 nM and more than 10000 nM, respectively.
